Where a name gives a salt, the structure may show the parent alone.
Target: Recombinant MAPKAPK2 (MK-2) (Homo sapiens, UniProt P49137)
Experiment: Determination of MK-2 IC50 (HSP-peptide phosphorylation, anion exchange resin capture assay)
Assay type: biochemical
Protocol: The phosphorylation of HSP-peptide ([sequence]) by MAPKAPK2 was measured using an anion exchange resin capture assay method. […] The reaction was terminated and [γ^33P]ATP was removed from solution by the addition of 150 μl of AG 1×8 ion exchange resin in 900 mM sodium formate pH 3.0. A 50 μl aliquot of head volume was removed from the quenched reaction mixture and added to a 96-well plate, 150 μl of Microscint-40 (Packard) was added and the amount of phosphorylated-peptide was determined.
Compounds are evaluated as potential inhibitors of the MK2 kinase by measuring their effects on MK2 phosphorylation of the peptide substrate. Compounds may be screened initially at two concentrations prior to determination of IC50 values. Screening results are expressed as percent inhibition at the concentrations of compound tested. For IC50 value determinations, compounds are tested at six concentrations in ten-fold serial dilutions with each concentration tested in triplicate. Results are expressed as IC50 values in micromolar. The assay is performed at a final concentration of 2% DMSO.

Recombinant MAPKAPK2 (MK-2), sequence (P49137 whole entry, species assumed): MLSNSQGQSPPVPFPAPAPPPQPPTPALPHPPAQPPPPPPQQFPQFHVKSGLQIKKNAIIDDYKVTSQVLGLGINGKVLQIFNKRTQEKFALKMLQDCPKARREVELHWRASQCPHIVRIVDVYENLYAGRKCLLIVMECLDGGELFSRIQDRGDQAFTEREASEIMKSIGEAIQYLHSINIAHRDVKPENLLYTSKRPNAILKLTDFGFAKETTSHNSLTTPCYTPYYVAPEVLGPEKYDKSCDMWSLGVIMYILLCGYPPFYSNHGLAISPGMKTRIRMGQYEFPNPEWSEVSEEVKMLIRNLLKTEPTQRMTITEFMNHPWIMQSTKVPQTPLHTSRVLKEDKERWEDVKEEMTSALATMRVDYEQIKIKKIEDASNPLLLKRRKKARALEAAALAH

Row | SMILES | IC50 (MAPKAP2 Avg. IC50) [nM] | IC50 (MAPKAP2 Avg. IC50, MK-2 inhibiting activity, Table I) [nM]
1 | Nc1ccc(-c2cc(-c3cc4c([nH]3)CCNC4=O)ccn2)cn1 [Example 90, trifluoroacetate] | 19.9 | 
2 | O=C1NCCc2[nH]c(-c3ccnc(/C=C\Cc4ccccc4)c3)cc21 [Example 749, trifluoroacetate] | 3750 | 
3 | O=C(CCCOc1ccc(-c2cc(-c3cc4c([nH]3)CCNC4=O)ccn2)cc1)NCCN1CCOCC1 [Example 357, trifluoroacetate] | 72.2 | 
4 | O=C(NC1CCCCC1)c1ccc(-c2cc(-c3cc4c([nH]3)CCNC4=O)ccn2)c(F)c1 [Example 391, trifluoroacetate] | 83.1 | 
5 | O=C1NCCc2[nH]c(-c3ccnc(/C=C/c4ccccc4-c4ccccc4)c3)cc21 [Example 670, trifluoroacetate] | 816 | 
6 | NCc1cccc(-c2cc(-c3cc4c([nH]3)CCNC4=O)ccn2)c1 [Example 551, 2-{2-[3-(aminomethyl)phenyl]pyridin-4-yl}-1,5,6,7-tetrahydro-4H-pyrrolo[3,2-c]pyridin-4-one trifluoroacetate] | 207 | 
7 | CN(C)C(=O)CCCOc1ccc(-c2cc(-c3cc4c([nH]3)CCNC4=O)ccn2)cc1 [Example 326, trifluoroacetate] | 62.2 | 
8 | O=C1NCCc2[nH]c(-c3ccnc(/C=C/c4ccc(-c5ccccc5)s4)c3)cc21 [Example 683, trifluoroacetate] | 1020 | 
9 | C[C@@H]1CN(c2ccccc2/C=C/c2cc(-c3cc4c([nH]3)CCNC4=O)ccn2)C[C@H](C)O1 [Example 766, 2-[2-((E)-2-{2-[(2R,6S)-2,6-dimethylmorpholin-4-yl]phenyl}vinyl)pyridin-4-yl]-1,5,6,7-tetrahydro-4H-pyrrolo[3,2-c]pyridin-4-one trifluoroacetate] | 7540 | 
10 | C/C=C/C(=O)Nc1cccc(-c2cc(-c3cc4c([nH]3)CCNC4=O)ccn2)c1 [Example 430, trifluoroacetate] | 99.3 | 
11 | C/C(=C\c1cc(-c2cc3c([nH]2)CCNC3=O)ccn1)c1ccccc1 [Example 582, trifluoroacetate] | 297 | 
12 | N#Cc1ccc(-c2cc(-c3cc4c([nH]3)CCNC4=O)ccn2)cc1 [Example 327, trifluoroacetate] | 62.3 | 
13 | CN(C)S(=O)(=O)c1ccc(-c2cc(-c3cc4c([nH]3)CCNC4=O)ccn2)cc1 [Example 470] | 120 | 
14 | O=C1NCCc2[nH]c(-c3ccnc(-c4cc(F)cc(F)c4)c3)cc21 [Example 80, trifluoroacetate] | 18.5 | 
15 | CC1Cc2[nH]c(-c3ccnc(-c4ccc(N(C)C)nc4)c3)cc2C(=O)N1 (stereo not drawn) [Example 295, trifluoroacetate] | 53.4 | 
16 | O=C1NCCc2[nH]c(-c3ccnc(/C=C\C=C\c4ccccc4)c3)cc21 [Example 610] | 365 | 
17 | O=C1NC(c2ccccc2)Cc2[nH]c(-c3ccnc(-c4cccc(F)c4)c3)cc21 (stereo not drawn) [Example 767, 2-[2-(3-fluorophenyl)pyridin-4-yl]-6-phenyl-1,5,6,7-tetrahydro-4H-pyrrolo[3,2-c]pyridin-4-one trifluoroacetate] | 7750 | 
18 | O=C(NCc1ccccc1)c1cc(-c2cc3c([nH]2)CCNC3=O)ccn1 [Example 787, trifluoroacetate] | 14400 | 
19 | O=C(O)c1cccc(-c2cccc(-c3cc(-c4cc5c([nH]4)CCNC5=O)ccn3)c2)c1 [Example 333, trifluoroacetate] | 64.2 | 
20 | COC(=O)Nc1ccc(-c2cc(-c3cc4c([nH]3)CCNC4=O)ccn2)cc1 [Example 203, trifluoroacetate] | 35.1 | 
21 | NCCc1[nH]c(-c2ccnc(NN)c2)cc1C(=O)NN [Example 817, 2-(2-aminoethyl)-5-(2-hydrazinopyridin-4-yl)-1H-pyrrole-3-carbohydrazide] |  | 20000
22 | COC(=O)c1ccc(-c2cc(-c3cc4c([nH]3)CCNC4=O)ccn2)cc1 [Example 105, trifluoroacetate] | 22 | 
23 | COc1cc(/C=C/c2cc(-c3cc4c([nH]3)CCNC4=O)ccn2)cc(OC)c1 [Example 171, trifluoroacetate] | 29.6 | 
24 | CC(=O)c1cccc(-c2cc(-c3cc4c([nH]3)CCNC4=O)c(F)cn2)c1 [Example 159, trifluoroacetate] | 28.3 | 
